Patent US6737383B1, “Herbicidal oxadiazolidines” (priority 1999, dated 2004)

Legend:
velvetleaf = test: Test B pre/postemergence velvetleaf; type: in vivo, Abutilon theophrasti
In short: (§1)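 Herbicidal effect was estimated by eye on a ten-point control scale after plants spent twelve to sixteen days in a greenhouse following soil or foliar treatment. Foliar sprays targeted plants at one to four leaves; all doses were formulated in a non-phytotoxic solvent with surfactant.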

pigweed = test: Test B pre/postemergence pigweed; type: in vivo, Amaranthus retroflexus
In short: as §1

corn = test: Test B pre/postemergence corn; type: in vivo, Zea mays
In short: as §1

crabgrass = test: Test B pre/postemergence crabgrass; type: in vivo, Digitaria sanguinalis
In short: as §1

blackgrass = test: Test B pre/postemergence blackgrass; type: in vivo, Alopecurus myosuroides
In short: as §1

cocklebur = test: Test B pre/postemergence cocklebur; type: in vivo, Xanthium strumarium
In short: as §1

rice = test: Test B flood test rice; type: in vivo, Oryza sativa
In short: (§2)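 Each value is a visual injury score relative to controls, with 10 meaning complete control and 0 no effect. Evaluation took place twelve to sixteen days after the 2-leaf-stage plants were treated and kept in the greenhouse.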

soybean = test: Test B pre/postemergence soybean; type: in vivo, Glycine max
In short: as §1

bedstraw = test: Test B pre/postemergence bedstraw; type: in vivo, Galium aparine
In short: as §1

sugar beet = test: Test B pre/postemergence sugar beet; type: in vivo, Beta vulgaris
In short: as §1

purple nutsedge = test: Test B pre/postemergence purple nutsedge; type: in vivo, Cyperus rotundus
In short: as §1

smallflower flatsedge = test: Test B flood test smallflower flatsedge; type: in vivo, Cyperus difformis
In short: as §2

wild oat = test: Test B pre/postemergence wild oat; type: in vivo, Avena fatua
In short: as §1

giant foxtail = test: Test B pre/postemergence giant foxtail; type: in vivo, Setaria faberii
In short: as §1

bamyardgrass = test: Test B flood test barnyardgrass; type: in vivo, Echinochloa crus-galli
In short: as §2

surinam grass = test: Test B pre/postemergence surinam grass; type: in vivo, Brachiaria decumbens
In short: as §1

[1] = Preemergence, Rate 62 g/ha, scale of 0 to 10 where 0 is no effect and 10 is complete control
[2] = Preemergence, Rate 250 g/ha, scale 0 to 10, 0 is no effect, 10 is complete control
[3] = Preemergence, Rate 500 g/ha, scale 0 to 10 (0 no effect, 10 complete control)
[4] = Rate 125 g/ha, Postemergence, scale 0 to 10
[5] = Rate 500 g/ha, Postemergence, scale 0 to 10
[6] = Preemergence, Rate 125 g/ha, 0 is no effect, 10 is complete control
[7] = Rate 62 g/ha, Postemergence, scale of 0 to 10 where 0 is no effect and 10 is complete control
[8] = Rate 62 g/ha, headed Pre-emergence (flood test species), scale 0 to 10 (0 no effect, 10 complete control)
[9] = Rate 125 g/ha, Pre-emergence, flood test species, scale 0 to 10 where 0 is no effect and 10 is complete control
[10] = Rate 250 g/ha, Pre-emergence, flood-test species, scale 0 to 10, 0 is no effect, 10 is complete control
[11] = Rate 500 g/ha, headed Pre-emergence (flood test species), scale 0 to 10 (0 no effect, 10 complete control)

COc1nc(OC)nc(N(C(=O)n2oc(=O)n(-c3ccccc3C)c2=O)C(C)C)n1 [Compound 181]
0: Velvetleaf plant response rating (velvetleaf; [1]) | Velvetleaf plant response rating (velvetleaf; [2]) | Velvetleaf plant response rating (velvetleaf; [3]) | Velvetleaf plant response rating (velvetleaf; [4]) | Plant response rating (0 to 10; 0 is no effect, 10 is complete control), Velvetleaf (velvetleaf; Rate 250 g/ha, Postemergence) | Velvetleaf plant response rating (velvetleaf; [5]) | Redroot pigweed plant response rating (pigweed; [1]) | Redroot pigweed plant response rating (0 to 10 scale) (pigweed; [6]) | Redroot pigweed plant response rating (pigweed; [2]) | Redroot pigweed plant response rating (pigweed; [3]) | Redroot pigweed plant response rating (pigweed; [7]) | Redroot pigweed plant response rating (pigweed; [4]) | Plant response rating (0 to 10; 0 is no effect, 10 is complete control), Redroot pigweed (pigweed; Rate 250 g/ha, Postemergence) | Redroot pigweed plant response rating (pigweed; [5]) | Corn plant response rating (corn; [1]) | Corn plant response rating (0 to 10 scale) (corn; [6]) | Corn plant response rating (corn; [2]) | Corn plant response rating (corn; [3]) | Corn plant response rating (corn; [7]) | Corn plant response rating (corn; [4]) | Plant response rating (0 to 10; 0 is no effect, 10 is complete control), Corn (corn; Rate 250 g/ha, Postemergence) | Corn plant response rating (corn; [5]) | Crabgrass plant response rating (crabgrass; [1]) | Crabgrass plant response rating (0 to 10 scale) (crabgrass; [6]) | Crabgrass plant response rating (crabgrass; [2]) | Crabgrass plant response rating (crabgrass; [3]) | Crabgrass plant response rating (crabgrass; [7]) | Crabgrass plant response rating (crabgrass; [4]) | Plant response rating (0 to 10; 0 is no effect, 10 is complete control), Crabgrass (crabgrass; Rate 250 g/ha, Postemergence) | Crabgrass plant response rating (crabgrass; [5]) | Blackgrass plant response rating (blackgrass; [1]) | Blackgrass plant response rating (0 to 10 scale) (blackgrass; [6]) | Blackgrass plant response rating (blackgrass; [2]) | Blackgrass plant response rating (blackgrass; [3]) | Blackgrass plant response rating (blackgrass; [7]) | Blackgrass plant response rating (blackgrass; [4]) | Plant response rating (0 to 10; 0 is no effect, 10 is complete control), Blackgrass (blackgrass; Rate 250 g/ha, Postemergence) | Blackgrass plant response rating (blackgrass; [5]) | Cocklebur plant response rating (cocklebur; [1]) | Cocklebur plant response rating (0 to 10 scale) (cocklebur; [6]) | Cocklebur plant response rating (cocklebur; [2]) | Cocklebur plant response rating (cocklebur; [3]) | Cocklebur plant response rating (cocklebur; [7]) | Cocklebur plant response rating (cocklebur; [4]) | Plant response rating (0 to 10; 0 is no effect, 10 is complete control), Cocklebur (cocklebur; Rate 250 g/ha, Postemergence) | Cocklebur plant response rating (cocklebur; [5]) | Rice plant response rating (rice; [8]) | Rice plant response rating (rice; [9]) | Rice plant response rating (rice; [10]) | Plant response rating, Rice (rice; [11]) | Soybean plant response rating (soybean; [1]) | Soybean plant response rating (0 to 10 scale) (soybean; [6]) | Soybean plant response rating (soybean; [2]) | Soybean plant response rating (soybean; [3]) | Soybean plant response rating (soybean; [7]) | Soybean plant response rating (soybean; [4]) | Plant response rating (0 to 10; 0 is no effect, 10 is complete control), Soybean (soybean; Rate 250 g/ha, Postemergence) | Soybean plant response rating (soybean; [5]) | Bedstraw plant response rating (bedstraw; [1]) | Bedstraw plant response rating (0 to 10 scale) (bedstraw; [6]) | Bedstraw plant response rating (bedstraw; [2]) | Bedstraw plant response rating (bedstraw; [7]) | Bedstraw plant response rating (bedstraw; [4]) | Plant response rating (0 to 10; 0 is no effect, 10 is complete control), Bedstraw (bedstraw; Rate 250 g/ha, Postemergence) | Bedstraw plant response rating (bedstraw; [5]) | Sugarbeets plant response rating (sugar beet; [1]) | Sugarbeets plant response rating (0 to 10 scale) (sugar beet; [6]) | Sugarbeets plant response rating (sugar beet; [2]) | Sugarbeets plant response rating (sugar beet; [3]) | Sugarbeets plant response rating (sugar beet; [7]) | Sugarbeets plant response rating (sugar beet; [4]) | Plant response rating (0 to 10; 0 is no effect, 10 is complete control), Sugarbeets (sugar beet; Rate 250 g/ha, Postemergence) | Sugarbeets plant response rating (sugar beet; [5]) | Nutsedge plant response rating (purple nutsedge; [1]) | Nutsedge plant response rating (0 to 10 scale) (purple nutsedge; [6]) | Nutsedge plant response rating (purple nutsedge; [2]) | Nutsedge plant response rating (purple nutsedge; [3]) | Nutsedge plant response rating (purple nutsedge; [7]) | Nutsedge plant response rating (purple nutsedge; [4]) | Plant response rating (0 to 10; 0 is no effect, 10 is complete control), Nutsedge (purple nutsedge; Rate 250 g/ha, Postemergence) | Nutsedge plant response rating (purple nutsedge; [5]) | S. Flatsedge plant response rating (smallflower flatsedge; [8]) | S. Flatsedge plant response rating (smallflower flatsedge; [9]) | S. Flatsedge plant response rating (smallflower flatsedge; [10]) | S. Flatsedge plant response rating (smallflower flatsedge; Rate 500 g/ha, Pre-emergence, flood test species, scale 0 to 10 (0 no effect, 10 complete control)) | Wild oats plant response rating (wild oat; [1]) | Wild oats plant response rating (wild oat; [2]) | Wild oats plant response rating (wild oat; [3]) | Wild oats plant response rating (wild oat; [4]) | Plant response rating (0 to 10; 0 is no effect, 10 is complete control), Wild oats (wild oat; Rate 250 g/ha, Postemergence) | Wild oats plant response rating (wild oat; [5]) | Giant foxtail plant response rating (giant foxtail; [1]) | Giant foxtail plant response rating (0 to 10 scale) (giant foxtail; [6]) | Giant foxtail plant response rating (giant foxtail; [2]) | Giant foxtail plant response rating (giant foxtail; [3]) | Giant foxtail plant response rating (giant foxtail; [7]) | Giant foxtail plant response rating (giant foxtail; [4]) | Plant response rating (0 to 10; 0 is no effect, 10 is complete control), Giant foxtail (giant foxtail; Rate 250 g/ha, Postemergence) | Giant foxtail plant response rating (giant foxtail; [5]) | Barnyardgrass plant response rating (bamyardgrass; [8]) | Barnyardgrass plant response rating (bamyardgrass; [9]) | Barnyardgrass plant response rating (bamyardgrass; [10]) | Plant response rating, Barnyardgrass (bamyardgrass; [11]) | B. signalgrass plant response rating (surinam grass; [1]) | B. signalgrass plant response rating (0 to 10 scale) (surinam grass; [6]) | B. signalgrass plant response rating (surinam grass; [2]) | B. signalgrass plant response rating (surinam grass; [3]) | B. signalgrass plant response rating (surinam grass; [7]) | B. signalgrass plant response rating (surinam grass; Rate 125 g/ha, Postemergence, scale 0 (no effect) to 10 (complete control)) | Plant response rating, B. signalgrass (surinam grass; Rate 250 g/ha, Postemergence, scale 0 to 10, 0 is no effect, 10 is complete control) | B. signalgrass plant response rating (surinam grass; Rate 500 g/ha, Postemergence, scale 0 to 10, 0 no effect, 10 complete control)
